# Experimental data reported in patent US12624024B2, “EP2 antagonist compounds” (Reservoir Neuroscience, Inc., priority 2021, dated 2026).
# pIC50: −log10 of the molar value.
# Biological target: T1, EP2 receptor (Homo sapiens, UniProt P43116)
# T1 construct: expressed in transfected cells; host or cells: CHO-K1 cells (ATCC), transient transfection with FuGENE 6
# Assay: EP2 Potency Assay (cAMP TR-FRET, CHO-K1 cells transfected with EP2 receptor, PGE2 at EC80)
# Assay type: cell-based
# Settings: CHO-K1 cells expressing EP2, prostaglandin E2 at EC80, read-out: EP2 Potency (IC50 category)
# Description: Compound potency was measured using a cAMP TR-FRET assay.
# After 6 hours incubation, the cell media was replaced with F12 medium supplemented with 10% FBS and 100 U/ml Pen-Strep. 24 hours after transfection, cells were harvested and seeded at a density of 3000 cells/well in a 384 well plate to perform the cAMP assay, using the LANCE Ultra cAMP assay kit (PerkinElmer).
# Plates were then centrifuged at 1000 rpm for 1 min, agitated at 600 rpm at R.T. for 2 min, and incubated at 25° C. for 5 min. The reference agonist, prostaglandin E2 (MCE), was added to each well at the appropriate concentration to reach its EC80 value. Plates were then centrifuged at 1000 rpm for 1 min, agitated at 600 rpm at R.T. for 2 min, and incubated at 25° C. for 30 min.
# A dose-response curve was prepared by plotting percent inhibition for each compound concentration, and then IC50 was calculated by fitting a curve to the plotted values and extrapolating the IC50 concentration.
# T1 sequence (P43116 whole entry): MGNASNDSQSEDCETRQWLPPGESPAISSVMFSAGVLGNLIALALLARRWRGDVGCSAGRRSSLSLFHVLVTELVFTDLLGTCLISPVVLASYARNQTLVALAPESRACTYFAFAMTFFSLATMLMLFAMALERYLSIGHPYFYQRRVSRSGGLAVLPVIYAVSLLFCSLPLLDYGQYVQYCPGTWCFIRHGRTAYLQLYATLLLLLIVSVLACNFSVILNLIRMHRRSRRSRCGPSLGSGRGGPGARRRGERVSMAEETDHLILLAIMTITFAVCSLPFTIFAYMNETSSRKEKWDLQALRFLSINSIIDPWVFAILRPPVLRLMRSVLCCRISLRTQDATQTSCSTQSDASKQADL
row,pIC50,SMILES
1,< 5.30,"COc1cc(C(C)N2CCOc3c(Cl)cc(-n4ccc5cc(F)ccc54)cc3C2)ccn1 (racemic) [Compound 217, 9-chloro-7-(5-fluoroindol-1-yl)-4-[1-(2-methoxypyridin-4-yl)ethyl]-3,5-dihydro-2H-1,4-benzoxazepine]"
2,< 5.30,"C[C@@H]1c2cc(-n3ccc4cc(F)ccc43)cc(Cl)c2OCCN1Cc1cc[nH]c(=O)c1 (single isomer, unassigned) [Compound 236]"
3,6.00 to 6.30,COc1nccc(CN2Cc3cc(-n4ccc5cc(F)ccc54)cc(Cl)c3OC[C@H]2C)n1 [Compound 10]
4,6.00 to 6.30,C[C@@H]1COc2c(Cl)cc(-n3ccc4cc(F)ccc43)cc2CN1Cc1cc[nH]c(=O)n1 [Compound 12]
5,6.00 to 6.30,COc1ncc(CN2CCOc3c(Cl)cc(-n4ccc5cc(C)ccc54)cc3C2)cn1 [Compound 14]
6,< 5.30,COc1ncc(CN2CCOc3c(Cl)cc(-n4ccc5cc(C(F)(F)F)ccc54)cc3C2)cn1 [Compound 15]
7,6.00 to 6.30,COc1ncc(CN2CCOc3c(Cl)cc(-n4ccc5cc(C#N)ccc54)cc3C2)cn1 [Compound 16]
8,5.30 to 6.00,"COc1ncc(CN2CCOc3c(Cl)cc(-n4cc(C(F)(F)F)c5ccccc54)cc3C2)cn1 [Compound 17, 9-chloro-4-[(2-methoxypyrimidin-5-yl)methyl]-7-[3-(trifluoromethyl)indol-1-yl]-3,5-dihydro-2H-1,4-benzoxazepine]"
9,< 5.30,COc1ncc(CN2CCOc3c(Cl)cc(-n4ccc5cc(N(C)C)ccc54)cc3C2)cn1 [Compound 18]
10,< 5.30,COc1ccc2c(ccn2-c2cc(Cl)c3c(c2)CN(Cc2cnc(OC)nc2)CCO3)c1 [Compound 19]
11,6.00 to 6.30,COc1ncc(CN2CCOc3c(Cl)cc(-n4ccc5cc(Cl)ccc54)cc3C2)cn1 [Compound 20]
12,< 5.30,COc1ncc(CN2CCOc3c(Cl)cc(-n4ccc5cc(SC)ccc54)cc3C2)cn1 [Compound 21]
13,< 5.30,COc1ncc(CN2CCOc3c(Cl)cc(-n4ccc5cc(Br)ccc54)cc3C2)cn1 [Compound 22]
14,5.30 to 6.00,COc1ncc(CN2CCOc3c(Cl)cc(-n4ccc5cc(F)c(F)cc54)cc3C2)cn1 [Compound 24]
15,6.00 to 6.30,COc1ncc(CN2CCOc3c(Cl)cc(-n4ccc5c(F)c(Cl)ccc54)cc3C2)cn1 [Compound 26]
16,6.00 to 6.30,COc1ncc(CN2CCOc3c(Cl)cc(-n4cc(Cl)c5cc(F)ccc54)cc3C2)cn1 [Compound 27]
17,< 5.30,COc1ncc(CN2CCOc3c(Cl)cc(-n4ccc5cc(F)c(Cl)cc54)cc3C2)cn1 [Compound 28]
18,< 5.30,COc1ncc(CN2CCOc3c(Cl)cc(-n4cc(Cl)c5cc(Cl)ccc54)cc3C2)cn1 [Compound 29]
19,5.30 to 6.00,COc1ncc(CN2CCOc3c(Cl)cc(-n4c(C)cc5cc(F)ccc54)cc3C2)cn1 [Compound 30]
20,6.00 to 6.30,COc1ncc(CN2CCOc3c(Cl)cc(-n4cc(C)c5cc(F)ccc54)cc3C2)cn1 [Compound 31]

row,pIC50,SMILES
1,5.30 to 6.00,COc1ncc(CN2CCOc3c(Cl)cc(-n4ccc5cccnc54)cc3C2)cn1 [Compound 32]
2,5.30 to 6.00,"COc1ncc(CN2CCOc3c(Cl)cc(-n4ccc5cc(F)cnc54)cc3C2)cn1 [Compound 33, 9-chloro-7-(5-fluoro-1H-pyrrolo[2,3-b]pyridin-1-yl)-4-((2-methoxypyrimidin-5-yl)methyl)-2,3,4,5-tetrahydrobenzo[f][1,4]oxazepine]"
3,< 5.30,COc1ncc(CN2CCOc3c(Cl)cc(-n4ccc5cc(Cl)ncc54)cc3C2)cn1 [Compound 35]
4,< 5.30,COc1ncc(CN2CCOc3c(Cl)cc(-n4ccc5cnccc54)cc3C2)cn1 [Compound 36]
5,6.00 to 6.30,COc1ncc(CN2CCOc3c(Cl)cc(-n4ccc5ncccc54)cc3C2)cn1 [Compound 37]
6,5.30 to 6.00,COc1ncc(CN2CCOc3c(Cl)cc(-n4ccc5nc(Cl)ccc54)cc3C2)cn1 [Compound 38]
7,5.30 to 6.00,COc1ncc(CN2CCOc3c(Cl)cc(-c4cccc5nccn45)cc3C2)cn1 [Compound 39]
8,5.30 to 6.00,"COc1ncc(CN2CCOc3c(Cl)cc(-c4ncc5ccccn45)cc3C2)cn1 [Compound 40, 9-chloro-7-{imidazo[1,5-a]pyridin-3-yl}-4-[(2-methoxypyrimidin-5-yl)methyl]-3,5-dihydro-2H-1,4-benzoxazepine]"
9,6.00 to 6.30,"COc1ncc(CN2CCOc3c(Cl)cc(-c4ncc5cc(Cl)ccn45)cc3C2)cn1 [Compound 41, 9-chloro-7-{7-chloroimidazo[1,5-a]pyridin-3-yl}-4-[(2-methoxypyrimidin-5-yl)methyl]-3,5-dihydro-2H-1,4-benzoxazepine]"
10,< 5.30,COc1ncc(CN2CCOc3c(Cl)cc(-n4ccc5cncnc54)cc3C2)cn1 [Compound 42]
11,< 5.30,COc1ncc(CN2CCOc3c(Cl)cc(-n4ccc5nccnc54)cc3C2)cn1 [Compound 43]
12,5.30 to 6.00,"COc1ncc(CN2CCOc3c(Cl)cc(-n4ccc5c4CCCC5)cc3C2)cn1 [Compound 44, 9-chloro-4-[(2-methoxypyrimidin-5-yl)methyl]-7-(4,5,6,7-tetrahydroindol-1-yl)-3,5-dihydro-2H-1,4-benzoxazepine]"
13,6.00 to 6.30,"COc1ncc(CN2CCOc3c(Cl)cc(N4CCc5cc(F)ccc54)cc3C2)cn1 [Compound 45, 9-chloro-7-(5-fluoro-2,3-dihydroindol-1-yl)-4-[(2-methoxypyrimidin-5-yl)methyl]-3,5-dihydro-2H-1,4-benzoxazepine]"
14,6.00 to 6.30,"COc1ncc(CN2CCOc3c(Cl)cc(N4CCc5cc(Cl)ccc54)cc3C2)cn1 [Compound 46, 9-chloro-7-(5-chloro-2,3-dihydroindol-1-yl)-4-[(2-methoxypyrimidin-5-yl)methyl]-3,5-dihydro-2H-1,4-benzoxazepine]"
15,5.30 to 6.00,"COc1ncc(CN2CCOc3c(Cl)cc(N4Cc5ccc(F)cc5C4)cc3C2)cn1 [Compound 47, 9-chloro-7-(5-fluoro-1,3-dihydroisoindol-2-yl)-4-[(2-methoxypyrimidin-5-yl)methyl]-3,5-dihydro-2H-1,4-benzoxazepine]"
16,< 5.30,COc1ncc(CN2CCOc3c(Cl)cc(N4Cc5ccccc5C4=O)cc3C2)cn1 [Compound 48]
17,< 5.30,"COc1ncc(CN2CCOc3c(Cl)cc(N4CCCc5cc(F)ccc54)cc3C2)cn1 [Compound 49, 9-chloro-7-(6-fluoro-3,4-dihydroquinolin-1(2H)-yl)-4-((2-methoxypyrimidin-5-yl)methyl)-2,3,4,5-tetrahydrobenzo[f][1,4]oxazepine]"
18,< 5.30,"COc1ncc(CN2CCOc3c(Cl)cc(N4CCOc5cc(F)ccc54)cc3C2)cn1 [Compound 51, 9-chloro-7-(7-fluoro-2,3-dihydro-1,4-benzoxazin-4-yl)-4-[(2-methoxypyrimidin-5-yl)methyl]-3,5-dihydro-2H-1,4-benzoxazepine]"
19,< 5.30,COc1ncc(CN2CCOc3c(Cl)cc(N4CCSc5ccccc54)cc3C2)cn1 [Compound 52]
20,< 5.30,COc1ncc(CN2CCOc3c(Cl)cc(N4CCS(=O)(=O)c5ccccc54)cc3C2)cn1 [Compound 53]

row,pIC50,SMILES
1,5.30 to 6.00,COc1ncc(CN2CCOc3c(Cl)cc(-c4cccc5ccccc45)cc3C2)cn1 [Compound 54]
2,< 5.30,COc1ncc(CN2CCOc3c(Cl)cc(-c4cccc5c4CCCC5)cc3C2)cn1 [Compound 55]
3,5.30 to 6.00,COc1ncc(CN2CCOc3c(Cl)cc(-c4coc5ccccc45)cc3C2)cn1 [Compound 56]
4,< 5.30,COc1ncc(CN2CCOc3c(Cl)cc(-c4cccc5c4OCCO5)cc3C2)cn1 [Compound 57]
5,5.30 to 6.00,N#Cc1ccc2c(ccn2-c2cc(Cl)c3c(c2)CN(Cc2cnc(=O)[nH]c2)CCO3)c1 [Compound 59]
6,5.30 to 6.00,O=c1ncc(CN2CCOc3c(Cl)cc(-n4ccc5cc(C(F)(F)F)ccc54)cc3C2)c[nH]1 [Compound 60]
7,< 5.30,CN(C)c1ccc2c(ccn2-c2cc(Cl)c3c(c2)CN(Cc2cnc(=O)[nH]c2)CCO3)c1 [Compound 61]
8,6.30 to 7.00,O=c1ncc(CN2CCOc3c(Cl)cc(-n4ccc5cc(Cl)ccc54)cc3C2)c[nH]1 [Compound 62]
9,> 7.00,O=c1ncc(CN2CCOc3c(Cl)cc(-n4ccc5c(F)c(F)ccc54)cc3C2)c[nH]1 [Compound 64]
10,6.00 to 6.30,O=c1ncc(CN2CCOc3c(Cl)cc(-n4ccc5c(F)c(Cl)ccc54)cc3C2)c[nH]1 [Compound 65]
11,5.30 to 6.00,Cc1cc2cc(F)ccc2n1-c1cc(Cl)c2c(c1)CN(Cc1cnc(=O)[nH]c1)CCO2 [Compound 66]
12,6.30 to 7.00,Cc1cn(-c2cc(Cl)c3c(c2)CN(Cc2cnc(=O)[nH]c2)CCO3)c2ccc(F)cc12 [Compound 67]
13,6.00 to 6.30,O=c1ncc(CN2CCOc3c(Cl)cc(-n4ccc5ncccc54)cc3C2)c[nH]1 [Compound 68]
14,< 5.30,O=c1ncc(CN2CCOc3c(Cl)cc(-n4ccc5cccnc54)cc3C2)c[nH]1 [Compound 69]
15,5.30 to 6.00,"O=c1ncc(CN2CCOc3c(Cl)cc(-n4ccc5cc(F)cnc54)cc3C2)c[nH]1 [Compound 70, 5-((9-chloro-7-(5-fluoro-1H-pyrrolo[2,3-b]pyridin-1-yl)-2,3-dihydrobenzo[f][1,4]oxazepin-4(5H)-yl)methyl)pyrimidin-2(1H)-one]"
16,< 5.30,O=c1ncc(CN2CCOc3c(Cl)cc(-n4ccc5ccncc54)cc3C2)c[nH]1 [Compound 71]
17,< 5.30,O=c1ncc(CN2CCOc3c(Cl)cc(-n4ccc5cc(Cl)ncc54)cc3C2)c[nH]1 [Compound 72]
18,< 5.30,O=c1ncc(CN2CCOc3c(Cl)cc(-n4ccc5cnccc54)cc3C2)c[nH]1 [Compound 73]
